Results reported in paper PMC7826463, “Pamiparib dose escalation in Chinese patients with non‐mucinous high‐grade ovarian cancer or advanced triple‐negative breast cancer” (Cancer Medicine, 2020).
Values joined by “and” are separate entries in the source; they are usually repeats but may differ in a detail not shown here. Identical values can stand only once.

Tested on: triple-negative breast cancer (TNBC)
Assay: Antitumor activity per RECIST v1.1 (best overall response, ORR, CBR, PFS) in patients with TNBC
Type: in vivo, human
Procedure: Secondary objectives were assessment of PK parameters and antitumor activity. Blood samples for the PK analysis were collected at Cycle 1 on Days 1, 2, and 3. Pharmacokinetic sampling was performed at Cycle 1 on Day 1 (predose and at 0.5, 1, 2, 4, 6, 9, and 12 hours postdose), Day 2, Day 3, and Day 10 (predose and at 0.5, 1, 2, 4, 6, 9, and 12 hours postdose); then at Cycles 2 and 3 on Day 1 (predose and at 2 hours postdose). […] Tumor assessments were performed by the investigators at screening, every 6 weeks after the first dose of pamiparib in the 1st year, and every 12 weeks thereafter until progression, per RECIST v1.1. Patients completed the study at the time of their safety follow‐up visit; therefore, radiological assessment of disease progression was not performed after the safety follow‐up visit. Approximately 14 to 18 evaluable patients were expected to enroll in the phase 1 part of the study. The safety population included all patients who received ≥1 dose of pamiparib. The PK population included all patients for whom valid pamiparib PK parameters could be estimated. Antitumor activity per RECIST v1.1 was assessed in all evaluable patients. […] The population evaluable for CA‐125 response included patients in the safety population with baseline CA‐125 ≥2 x upper limit of normal. Descriptive statistics were used to summarize all study data. Continuous variables included the number of non‐missing observations, mean, standard deviation, median, minimum, and maximum. Categorical variables were summarized by their frequency and percentage. Progression‐free survival was estimated using the Kaplan–Meier method and the corresponding 95% confidence interval (CI) was constructed using Greenwood's formula. Standard PK parameters (i.e., area under the plasma concentration‐time curve [AUC] from time of drug administration; maximum plasma concentration [Cmax]; time to Cmax; elimination half‐life [t1/2]; apparent clearance; and apparent volume of distribution during terminal phase) were estimated and derived using standard non‐compartmental methods.

[1] = TNBC (n = 5), RECIST efficacy-evaluable
[2] = TNBC (n = 5), RECIST efficacy-evaluable, 20-60 mg BID
[3] = TNBC (n=6), Kaplan-Meier, NE, not estimable

C[C@]12CCCN1CC1=NNC(=O)c3cc(F)cc4[nH]c2c1c34 [pamiparib, Pamiparib]
Clinical benefit rate (CR+PR+SD ≥24 weeks) [1]: 0 % (95% CI)
Disease control rate (CR+PR+SD) [1]: 0 % (95% CI)
Objective response rate (CR+PR) [1]: 0 % (95% CI)
Best overall response: Complete response [2]: 0 n (%)
Best overall response: Partial response [2]: 0 n (%)
Best overall response: Stable disease [2]: 0 n (%)
Median PFS (95% CI) (TNBC (n=6), Kaplan-Meier): 1.5 (1.45–1.61) months
Event-free rate at 3 months (95% CI) [3]: 0 (NE–NE) %
Event-free rate at 6 months (95% CI) [3]: 0 (NE–NE) %
Event-free rate at 9 months (95% CI) [3]: 0 (NE–NE) %
PFS Events (TNBC (n=6), safety population): 5 (83.3) n (%)
PFS events: Disease progression (TNBC (n=6), safety population): 5 n (%) and 5 (83.3) n (%)
